One data set has as its system HT-29. Description: Cytotoxicity (IC50) on HT-29. The data set is classed as cell-based. Particulars: Homo sapiens. An excerpt: Human umbilical vascular endothelial cells (HUVECs) were purchased from Cascade Biologics, Inc. (USA). HUVECs were maintained in Medium 200 (Cascade Biologics, Inc. USA) supplemented with 10% fetal bovine serum (FBS; Gibco BRL) and low serum growth supplement (LSGS; Cascade Biologics, Inc. USA). Human dermal fibroblasts (HDFs) were purchased from Cascade Biologics, Inc. (USA). HDFs were maintained in Medium 106 (Cascade Biologics, Inc. USA) supplemented with 10% FBS and low serum growth supplement (LSGS; Cascade Biologics, Inc. USA). The human colon adenocarcinoma cell lines HT-29 were purchased from the ATCC (Manassas, Va. USA). HT-29 were maintained in Dubecco's Modified Eagle Medium (DMEM; Gibco) supplemented with 10% FBS and 100 ng/ml penicillin and […] streptomycin (Life Technologies, Inc., Grand Island, N.Y., USA). […] The absorbance was measured at 450 nm, using a microplate reader with a reference wavelength at 600 nm or over. […]
(§1) The effects on cell viability after the treatments with different concentrations of the Angelicae sinensis extracts or the active components purified therefrom were evaluated by modified MTT assay in triplicate. […] Absorbance at 550 nm of the solutions was measured with MRX Microtiter Plate Luminometer (DYNEX, USA). The absorbance of untreated cells was considered as 100%. […]

The subject of another data set is brain tumor cell lines. The data set is described as follows: Cytotoxicity (IC50) on brain tumor cell lines, pooled statement. Format: cell-based. Conditions: read-out: IC50 to brain tumor cell lines. As to the method: (§2) The effects on cell viability after the treatments with different concentrations of the Angelicae sinensis extracts or the active components purified therefrom were evaluated by modified MTT assay in triplicate. Briefly, the cells (5×10^3) were incubated into 96-well plates containing 100 μl of a growth medium. The cells were permitted to adhere for 24 hours, then treated with 100 μl of the herbal extracts or the active components dissolved in the medium. The control contained DMSO of <0.02% (v/v). After 24, 48 and 72 h incubation, the drug-containing medium was replaced by 50 μl of fresh medium, and cells in each well were incubated in 50 μl of 400 μg/ml MTT for 6-8 h. The medium and MTT were removed later and 100 μl of DMSO was added to each well and to the control, to dissolve the soluble components. Absorbance at 550 nm of the solutions was measured with MRX Microtiter Plate Luminometer (DYNEX, USA). The absorbance of untreated cells was considered as 100%. To evaluate the effects of the extracts or the active components on cell growth rate of GBM cells, 5×10^3 exponentially growing cells were treated with different concentrations for 24, 48, or 72 h. The cytotoxicity of each test substance was determined as an IC50 value, which represents the drug concentration required to cause 50% inhibition. All experiments in this study were performed in triplicate.

Data set [1] in a line: Cytotoxicity (IC50) on HDF. Conditions: human, human dermal fibroblasts (HDF), normal cells; Table 1, value in parentheses. The data set is classed as cell-based, human.
From the text: Human umbilical vascular endothelial cells (HUVECs) were purchased from Cascade Biologics, Inc. (USA). HUVECs were maintained in Medium 200 (Cascade Biologics, Inc. USA) supplemented with 10% fetal bovine serum (FBS; Gibco BRL) and low serum growth supplement (LSGS; Cascade Biologics, Inc. USA). Human dermal fibroblasts (HDFs) were purchased from Cascade Biologics, Inc. (USA). HDFs were maintained in Medium 106 (Cascade Biologics, Inc. USA) supplemented with 10% FBS and low serum growth supplement (LSGS; Cascade Biologics, Inc. USA). The human colon adenocarcinoma cell lines HT-29 were purchased from the ATCC (Manassas, Va. USA). HT-29 were maintained in Dubecco's Modified Eagle Medium (DMEM; Gibco) supplemented with 10% FBS and 100 ng/ml penicillin and […] streptomycin (Life Technologies, Inc., Grand Island, N.Y., USA). For the proliferation assay of cell in log growth (G1), the cells were harvested at 60-80% of confluence. 100 μl of cell suspensions were dispensed onto a Falcon 96-well plates The densities were 6×10^3 cells/well in Medium 200 (for HUVECs), and 9×10^3 cells/well in Medium 106 (for HDFs), and 5×10^3 cells/well in DMEM (for HT-29) supplemented with 10% FBS. The cells were pre-incubated for 24 hours in an incubator (Humidified atmosphere, e.g., at 37° C., 5% CO2). 10 μl of toxicant of various concentrations were added into the culture medium of the plate. The cell cultures were incubated for 48 hours. 10 μl of the Cell Counting Kit-8 (CCK-8; DOJINDO) solution were added and the cell cultures incubated for 1˜4 hours in the incubator. The absorbance was measured at 450 nm, using a microplate reader with a reference wavelength at 600 nm or over.
(§3) Human tumor cell lines (MCF-7, CL1-5, HT-29, Caco-2), human umbilical vascular endothelial cells (HUVEC), and human dermal fibroblasts (HDF) were tested for sensitivity on Angelicae sinensis extracts, ligustilide, n-butylidenephthalide and its derivatives in vitro. The DBTRG-05MG, BCM, HL-60 and J5 cells were grown in RPMI-1640 medium containing 10% fetal calf serum and 100 ng/ml penicillin and […] streptomycin at 37° C. in a humidified atmosphere with 5% CO2. The G5T/VGH, RG2, Ni 8, SVEC and Balb/3T3 cells were cultured in DMEM with 10% fetal calf serum and 100 ng/ml penicillin and […] streptomycin at 37° C. in 5% CO2. Mycoplasma infection of the culture cells was excluded by PCR screening methods before each experiment.
as §2, with “To evaluate the effects of the extracts or the active components on cell growth rate of GBM cells, 5×10^3 exponentially growing cells were treated with different concentrations for 24, 48, or 72 h. The cytotoxicity of each test substance was determined as an IC50 value, which represents the drug concentration required to cause 50% inhibition. All experiments in this study were performed in triplicate.” left out

The test system of a further data set is A549. The data set is described as follows: Cytotoxicity (IC50) on A549. Format: cell-based. Conditions: Homo sapiens. As to the method: as §2
A further data set has as its system DBTRG-05MG. The data set is described as follows: Cell cycle analysis (PI staining, FACScan) in GBM cells. The data set is classed as cell-based, human. Conditions: 400 μM BP. The method, then:
Brain tumor cell lines DBTRG-05MG and G5T/VGH were cultured in the growth medium with a diluent. For each test and control, DMSO was added, and the content is less than 0.02% (v/v). For the AS-C and BP treatment, 70 μg/ml of AS-C and 400 μM of BP were added, respectively. All were cultured for 48 hours. The analysis of cell cycle distribution was performed by DNA staining with propidium iodide (PI). Briefly, 2×10^6 adherent cells were detached by trypsinization. The detached cells and the floating dead cells were centrifuged and washed twice with 10 ml of cold 1×PBS (Life Technologies, Inc.). Supernatant was aspirated, cells were re-suspended in 0.8 ml of 1×PBS, and then 200 μl of PI solution (50 μg/ml PI+0.05 mg/ml RNase A; Sigma Chemical Co.) was added, and the cells were refrigerated at 4° C. overnight. The cells were incubated while protected from light at room temperature for at least 2 h before DNA analysis. After staining, DNA was detected and quantified on 20,000 total cells using a FACScan (Becton Dickinson Immunocytometry Systems, San Jose, Calif., USA) and CellQuest analysis software. The G0/G1 phases were gated in M1 (×2); G2/M phases were gated in M2 (×2); the total cells were gated in M3; S phase was M3−(M1(×2)+M2(×2)); Sub G1 phase (apoptosis cells) was gated in M4.

In a further data set the test system is CL1-5. Description: Cytotoxicity (IC50) on CL1-5. Format: cell-based. Particulars: Homo sapiens. The method, then:
as §3
as §1, with “triplicate. Briefly, the cells (5×10^3) were incubated into 96-well plates containing 100 μl of a growth medium. The cells were permitted to adhere for 24 hours, then treated with 100 μl of the herbal extracts or the active components dissolved in the medium. The control contained DMSO of <0.02% (v/v).” for “triplicate.”

In a further data set the test system is J5. The data set is described as follows: Cytotoxicity (IC50) on J5. Format: cell-based. Particulars: Homo sapiens. As to the method: as §3
as §1, with “triplicate. Briefly, the cells (5×10^3) were incubated into 96-well plates containing 100 μl of a growth medium. The cells were permitted to adhere for 24 hours, then treated with 100 μl of the herbal extracts or the active components dissolved in the medium. The control contained DMSO of <0.02% (v/v).” for “triplicate.”

The next data set concerns RG2. Description: Cytotoxicity (IC50) on RG2. The data set is classed as cell-based, rat. Particulars: Rattus norvegicus, RG2. The method, then:
as §3, §2

Molecules are shown by their SMILES. Values after ≈ are worked out from the molar mass of the structure shown. Bounds are passed on as bounds.

As for `CCCC=C1OC(=O)c2ccccc21` [BP, n-Butylidenephthalide], the IC50 was 15 to 97 µg/mL in the data set on HT-29 (Table 2); 79.8 to 516 µM with HT-29 (Table 2, value in parentheses); 1.4 to 10 µg/mL (≈ 7.44 to 53.1 µM) in the data set on brain tumor cell lines; 1600 µM in data set [1]; 8 to 12 µg/mL in the data set with A549 (Table 2); 42.6 to 63.8 µM in the data set with A549 (Table 2, value in parentheses). The concentration for half-maximal inhibition (IC50) in the data set with CL1-5 (Table 2) was greater than 100 µg/mL; with CL1-5 (Table 2, value in parentheses), greater than 532 µM; with J5 (Table 2), 15 to 20 µg/mL; in the data set on J5 (Table 2, value in parentheses) it was 79.8 to 106 µM; in the data set with RG2 (Table 1, value in parentheses) it was 7.45 µM; with RG2 (Table 2), 1.4 µg/mL. In addition, the IC50 in the data set on RG2 (Table 2, value in parentheses) worked out at 7.45 µM; in the data set on RG2 (cancer cells, Table 1) it was 1.4 µg/mL. Besides, in the data set on DBTRG-05MG, the “cell cycle accumulation at G0/G1 phase” value is greater than 90%.

Usually IC50 stands for the concentration needed to halve the response being measured.

The values are drawn from patent publication US7455861B2, “Angelicae sinensis extracts useful for treatment of cancers” (priority 2004, dated 2008).
